Our source for the Km values is publication PMC5397484, “Gel-Based Purification and Biochemical Study of Laccase Isozymes from Ganoderma sp. and Its Role in Enhanced Cotton Callogenesis” (Frontiers in Microbiology, 2017).

Structures are written as SMILES. Where two headings read alike, the source gives them in different places.

Experiment in all cases: absorbance […] nm, Eadie-Hofstee plot
Holding throughout (type): biochemical, Ganoderma lucidum

The subject of experiment [1] is T1, Glac L5.
T1 construct: gene GL16398; native secreted isozyme, copper-induced culture, native-PAGE purified; 40-66 kDa range for all isozymes, described as multimeric; gene not assigned (GL tags are of another genome strain)
The settings on record: 0.1 M sodium acetate pH 5.0 (methods; table title says optimal pH); 0.02-0.5 mM substrate; read-out: ABTS / Km.

The subject of experiment [2] is T2, Glac L3.
T2 construct: gene GL16398; native secreted isozyme, copper-induced culture, native-PAGE purified; 40-66 kDa range for all isozymes, described as multimeric; gene not assigned (GL tags are of another genome strain)
The settings on record: 0.1 M sodium acetate pH 5.0 (methods; table title says optimal pH); 0.02-0.5 mM substrate; read-out: ABTS / Km.

Experiment [3] concerns T3, Glac L4.
T3 construct: gene GL16398; native secreted isozyme, copper-induced culture, native-PAGE purified; 40-66 kDa range for all isozymes, described as multimeric; gene not assigned (GL tags are of another genome strain)
The settings on record: 0.1 M sodium acetate pH 5.0 (methods; table title says optimal pH); 0.02-0.5 mM substrate; read-out: ABTS / Km.

The subject of experiment [4] is T4, Glac L2.
T4 construct: gene GL16398; native secreted isozyme, copper-induced culture, native-PAGE purified; 40-66 kDa range for all isozymes, described as multimeric; gene not assigned (GL tags are of another genome strain)
The settings on record: 0.1 M sodium acetate pH 5.0 (methods; table title says optimal pH); 0.02-0.5 mM substrate; read-out: ABTS / Km.

In experiment [5] the test system is T4, Glac L2. The settings on record: citrate-phosphate pH 4.0 (methods; table title says optimal pH); 0.1-0.8 mM substrate; read-out: O-tolidine / Km.
The test system of experiment [6] is T3, Glac L4. The settings on record: citrate-phosphate pH 4.0 (methods; table title says optimal pH); 0.1-0.8 mM substrate; read-out: O-tolidine / Km.
The subject of experiment [7] is T2, Glac L3. The settings on record: citrate-phosphate pH 4.0 (methods; table title says optimal pH); 0.1-0.8 mM substrate; read-out: O-tolidine / Km.
Experiment [8] deals with T1, Glac L5. The settings on record: citrate-phosphate pH 4.0 (methods; table title says optimal pH); 0.1-0.8 mM substrate; read-out: O-tolidine / Km.
In experiment [9] the test system is T3, Glac L4. The settings on record: citrate-phosphate pH 4.0 (methods; table title says optimal pH); 0.5-3.0 mM substrate; read-out: Guaiacol / Km.
For experiment [10], the system named is T4, Glac L2. The settings on record: citrate-phosphate pH 4.0 (methods; table title says optimal pH); 0.5-3.0 mM substrate; read-out: Guaiacol / Km.
Experiment [11] concerns T2, Glac L3. The settings on record: citrate-phosphate pH 4.0 (methods; table title says optimal pH); 0.5-3.0 mM substrate; read-out: Guaiacol / Km.
Experiment [12] has as its system T1, Glac L5. The settings on record: citrate-phosphate pH 4.0 (methods; table title says optimal pH); 0.5-3.0 mM substrate; read-out: Guaiacol / Km.

Take `CCn1c(=NN=c2sc3cc(S(=O)(=O)O)ccc3n2CC)sc2cc(S(=O)(=O)O)ccc21` [ABTS, 2,2′-azino-bis(3-ethylbenzothiazoline-6-sulfonic acid)]: the Km came out at 15 µM in experiment [1], 81 µM in experiment [2], 50 µM in [3] and 83 µM in [4].
In the case of `Cc1cc(-c2ccc(N)c(C)c2)ccc1N` [O-tolidine], the Km in [5] stood at 724 µM; in experiment [6] it was 365 µM; in experiment [7], 507 µM; in [8], 78 µM.
For the compound `COc1ccccc1O` [guaiacol], the Km in experiment [9] came out at 96 µM; in experiment [10] it was 115 µM; in experiment [11], 80 µM; in experiment [12], 126 µM.
